Assay results from patent US5288709A, “Erythromycin derivatives” (priority 1991, dated 1994).
Values after ≈ are worked out from the molar mass of the structure shown. Read-outs that look alike come from different tables or passages of the source.

Columns and labels:
Test in all cases: In-vitro antimicrobial activity primary screen (agar dilution MIC)
Assay type in all cases: cell-based
[1] = test system: Acinetobacter SP CMX 669
Experimental: (§1) The antimicrobial spectra of several of the compounds of the present invention were tested as described below.
(§2) Twelve petri dishes containing successive aqueous dilutions of the test compounds, mixed with 10 mL of sterilized Brain Heart Infusion (BHI) agar (Difco 0418-01-5), were prepared. Each plate was inoculated with 1:100 (or 1:10 for slow growing strains (primarily Micrococcus and Streptococcus) dilutions of up to 32 different microorganisms, using a Steers replicator block. The inoculated plates were incubated at 35 37° C. for 20-24 hours. In addition, a control plate, using BHI agar containing no test compound, was prepared and incubated at the beginning and the end of each test.
(§3) An additional plate containing a compound having known susceptibility patterns for the organisms being tested and belonging to the same antibiotic class as the test compounds was also prepared and incubated as a further control, as well as to provide test-to test comparability.
(§4) After incubation, each plate was read. The MIC (minimum inhibitory concentration) is defined as the lowest concentration of test compound yielding no growth, a slight haze, or sparsely isolated colonies on the inoculum spot as compared to the growth control containing no test compound.

[2] = test system: Enterococcus faecium ATCC 8043
Experimental: as §1, §2, §3, §4

[3] = test system: Escherichia coli DC-2; conditions: Escherichia coli DC-2, BHI agar, 20-24 h
Experimental: as §1, §2, §3, §4

[4] = test system: Streptococcus bovis A5169; conditions: Streptococcus equinus, BHI agar, 20-24 h
Experimental: as §1, §2, §3, §4

[5] = test system: Pseudomonas aeruginosa A5007
Experimental: as §1, §2, §3, §4

[6] = test system: Enterobacter aerogenes ATCC 13048; conditions: Klebsiella aerogenes, Enterobacter aerogenes ATCC 13048, BHI agar, 20-24 h
Experimental: as §1, §2, §3, §4

[7] = test system: Micrococcus luteus ATCC 9341; conditions: 20-24 h
Experimental: as §1, §2, §3, §4

[8] = test system: Pseudomonas cepacia 2961; conditions: BHI agar, 20-24 h
Experimental: as §1, §2, §3, §4

[9] = test system: Pseudomonas aeruginosa K799/61; conditions: Pseudomonas aeruginosa K799/61, BHI agar, 20-24 h
Experimental: as §1, §2, §3, §4

[10] = test system: Streptococcus pyrogenes 2548 INDUC; conditions: BHI agar, 20-24 h
Experimental: as §1, §2, §3, §4

[11] = test system: Escherichia coli H560; conditions: Escherichia coli H560, BHI agar, 20-24 h
Experimental: as §1, §2, §3, §4

[12] = test system: Escherichia coli SS; conditions: BHI agar, 20-24 h
Experimental: as §1, §2, §3, §4

[13] = test system: Pseudomonas aeruginosa BMH10; conditions: BHI agar, 20-24 h
Experimental: as §1, §2, §3, §4

[14] = test system: Staphylococcus epidermidis 3519; conditions: BHI agar, 20-24 h
Experimental: as §1, §2, §3, §4

[15] = test system: Providencia stuartii CMX 640
Experimental: as §1, §2, §3, §4

[16] = test system: Staphylococcus aureus ATCC 6538P; conditions: Staphylococcus aureus, ATCC6538P, 24 h, BHI agar, 20-24 h
Experimental: as §1, §2, §3, §4

[17] = test system: Staphylococcus aureus 45; conditions: BHI agar, 20-24 h
Experimental: as §1, §2, §3, §4

[18] = test system: Pseudomonas aeruginosa K799/WT
Experimental: as §1, §2, §3, §4

[19] = test system: Klebsiella pneumoniae ATCC 8045; conditions: Klebsiella pneumoniae ATCC 8045, BHI agar, 20-24 h
Experimental: as §1, §2, §3, §4

[20] = test system: Staphylococcus aureus 45 RAR2; conditions: Staphylococcus aureus, 45RAR2, 24 h, BHI agar, 20-24 h
Experimental: as §1, §2, §3, §4

[21] = test system: Escherichia coli JUHL; conditions: Escherichia coli JUHL, BHI agar, 20-24 h
Experimental: as §1, §2, §3, §4

[22] = test system: Staphylococcus aureus A5177; conditions: Staphylococcus aureus A5177, BHI agar, 20-24 h
Experimental: as §1, §2, §3, §4

[23] = test system: Streptococcus agalactiae CMX 508; conditions: 20-24 h
Experimental: as §1, §2, §3, §4

[24] = test system: Micrococcus luteus ATCC 4698; conditions: Micrococcus luteus, ATCC4698, 24 h, BHI agar, 20-24 h
Experimental: as §1, §2, §3, §4

[25] = test system: Streptococcus pyrogenes EES61; conditions: BHI agar, 20-24 h, read-out: MIC
Experimental: as §1, §2, §3, §4

[26] = test system: Staphylococcus aureus CMX 503A; conditions: Staphylococcus aureus, CMX503A, 24 h, BHI agar, 20-24 h, read-out: MIC
Experimental: as §1, §2
(§5) An additional plate containing a compound having known susceptibility patterns for the organisms being tested and belonging to the same antibiotic class as the test compounds was also prepared and incubated as a further control, as well as to provide test-to test comparability. Erythromycin A was used for this purpose.
as §4

[27] = test system: Staphylococcus aureus CMX 686B; conditions: CMX686B, BHI agar, 20-24 h, read-out: MIC
Experimental: as §1, §2, §5, §4

[28] = test system: Staphylococcus aureus CMX 553; conditions: Staphylococcus aureus, CMX553, 24 h, BHI agar, 20-24 h, read-out: MIC
Experimental: as §1, §2, §5, §4

[29] = Pseudomonas aeruginosa A5007, BHI agar, 20-24 h, read-out: MIC
[30] = ATCC9341, BHI agar, read-out: MIC
[31] = Burkholderia cepacia, read-out: MIC
[32] = Staphylococcus epidermidis, 3519, 24 h
[33] = CMX640, Providencia stuartii CMX 640, BHI agar, 20-24 h, read-out: MIC
[34] = Staphylococcus aureus, 45, 24 h
[35] = Pseudomonas aeruginosa K799/WT, BHI agar, 20-24 h, read-out: MIC
[36] = CMX508, BHI agar, read-out: MIC
[37] = Enterococcus faecium, ATCC8043, 24 h

Structure (SMILES)	MIC ([3]; DC2, read-out: MIC)	MIC ([4]; read-out: MIC)	MIC [5, 29]	MIC ([6]; ATCC13048, read-out: MIC)	MIC [7, 30]	MIC [8, 31]	MIC ([12]; Escherichia coli, 24 h)	MIC ([13]; read-out: MIC)	MIC [14, 32]	MIC [15, 33]	MIC [16]	MIC [17, 34]	MIC [18, 35]	MIC ([19]; ATCC8045, read-out: MIC)	MIC [20]	MIC [24]	MIC [25]	MIC [26]	MIC [27]	MIC [28]	other results
CC[C@H]1OC(=O)[C@H](C)[C@@H](O[C@H]2C[C@@](C)(OC)[C@H](NS(C)(=O)=O)[C@H](C)O2)[C@H](C)[C@@H](O[C@@H]2O[C@H](C)C[C@H](N(C)C)[C@H]2O)[C@](C)(O)C[C@@H](C)[C@@H]2O[C@@]1(C)C(=O)[C@H]2C [Example 11, (4"R,9S)-9-Deoxo-4",11,12-trideoxy-9,12-epoxy-4"-[(methylsulphonyl)amino]-11-oxoerythromycin A]	> 100 µg/mL	< 0.005 µg/mL	> 100 µg/mL	> 100 µg/mL	0.05 µg/mL (≈ 0.063 µM)	> 100 µg/mL	0.78 µg/mL (≈ 0.984 µM)	> 100 µg/mL	0.78 µg/mL (≈ 0.984 µM)	> 100 µg/mL	0.39 µg/mL (≈ 0.492 µM)	0.39 µg/mL (≈ 0.492 µM)	100 µg/mL (≈ 126 µM)	> 100 µg/mL	0.39 µg/mL (≈ 0.492 µM)	0.1 µg/mL (≈ 0.126 µM)	< 0.005 µg/mL	0.39 µg/mL (≈ 0.492 µM)	0.39 µg/mL (≈ 0.492 µM)	0.2 µg/mL (≈ 0.252 µM)	MIC ([1]; SPCMX669, Acinetobacter SP CMX 669, BHI agar, 20-24 h, read-out: MIC): 50 µg/mL (≈ 63 µM); MIC ([2]; ATCC8043, Enterococcus faecium ATCC 8043, BHI agar, 20-24 h, read-out: MIC): 0.05 µg/mL (≈ 0.063 µM); MIC ([9]; Pseudomonas aeruginosa, K799/61, 24 h): 3.1 µg/mL (≈ 3.91 µM); MIC ([10]; Streptococcus, 2548INDUC, 24 h): 0.78 µg/mL (≈ 0.984 µM); MIC ([11]; read-out: MIC): > 100 µg/mL; MIC ([21]; read-out: MIC): > 100 µg/mL; MIC ([22]; Staphylococcus aureus, A5177, 24 h): 0.39 µg/mL (≈ 0.492 µM); MIC [23, 36]: 0.02 µg/mL (≈ 0.0252 µM)
CC[C@H]1OC(=O)[C@H](C)[C@@H](O[C@H]2C[C@@](C)(OC)[C@@H](OC(N)=O)[C@H](C)O2)[C@H](C)[C@@H](O[C@@H]2O[C@H](C)C[C@H](N(C)C)[C@H]2O)[C@](C)(O)C[C@@H](C)[C@@H]2O[C@@]1(C)[C@@H](O)[C@H]2C [Example 17, (9S,11S)-4"-O-Aminocarbonyl-9-deoxo-12-deoxy-9,12-epoxyerythromycin A]							0.2 µg/mL (≈ 0.263 µM)				0.2 µg/mL (≈ 0.263 µM)	0.78 µg/mL (≈ 1.03 µM)			0.39 µg/mL (≈ 0.513 µM)	0.2 µg/mL (≈ 0.263 µM)	0.02 µg/mL (≈ 0.0263 µM)	0.39 µg/mL (≈ 0.513 µM)	0.39 µg/mL (≈ 0.513 µM)	0.39 µg/mL (≈ 0.513 µM)	MIC ([1]; Acinetobacter, SPCMX669, 24 h): 50 µg/mL (≈ 65.7 µM); MIC [2, 37]: 0.2 µg/mL (≈ 0.263 µM); MIC ([3]; Escherichia coli, DC2, 24 h): 50 µg/mL (≈ 65.7 µM); MIC ([4]; A5169, 24 h): 0.05 µg/mL (≈ 0.0657 µM); MIC ([5]; Pseudomonas aeruginosa, A5007, 24 h): > 100 µg/mL; MIC ([6]; ATCC13048, 24 h): 50 µg/mL (≈ 65.7 µM); MIC ([7]; Micrococcus luteus, ATCC9341, 24 h, BHI agar): 0.05 µg/mL (≈ 0.0657 µM); MIC ([8]; Burkholderia cepacia, 2961, 24 h): > 100 µg/mL; MIC ([9]; read-out: MIC): 0.78 µg/mL (≈ 1.03 µM); MIC ([10]; read-out: MIC): 1.56 µg/mL (≈ 2.05 µM); MIC ([11]; Escherichia coli, H560, 24 h): 25 µg/mL (≈ 32.9 µM); MIC ([13]; Pseudomonas aeruginosa, BMH10, 24 h): 25 µg/mL (≈ 32.9 µM); MIC ([14]; read-out: MIC): 0.78 µg/mL (≈ 1.03 µM); MIC ([15]; Providencia stuartii, CMX640, 24 h): > 100 µg/mL; MIC ([18]; Pseudomonas aeruginosa, K799/WT, 24 h): 25 µg/mL (≈ 32.9 µM); MIC ([19]; Klebsiella pneumoniae, ATCC8045, 24 h): 25 µg/mL (≈ 32.9 µM); MIC ([21]; Escherichia coli, 24 h): 50 µg/mL (≈ 65.7 µM); MIC ([22]; read-out: MIC): 12.5 µg/mL (≈ 16.4 µM); MIC [23, 36]: 0.02 µg/mL (≈ 0.0263 µM)
CC[C@H]1OC(=O)[C@H](C)[C@@H](O[C@H]2C[C@@](C)(OC)[C@H](NC(=O)OCc3ccccc3)[C@H](C)O2)[C@H](C)[C@@H](O[C@@H]2O[C@H](C)C[C@H](N(C)C)[C@H]2O)[C@](C)(O)C[C@@H](C)[C@@H]2O[C@@]1(C)C(=O)[C@H]2C [Example 7, (4"R,9S)-9-Deoxo-4",11,12-trideoxy-9,12-epoxy-11-oxo-4"-[[(phenylmethoxy)carbonyl]amino]erythromycin A]	100 µg/mL (≈ 118 µM)	0.1 µg/mL (≈ 0.118 µM)	> 100 µg/mL	100 µg/mL (≈ 118 µM)	0.05 µg/mL (≈ 0.0589 µM)	> 100 µg/mL		100 µg/mL (≈ 118 µM)	0.39 µg/mL (≈ 0.459 µM)	> 100 µg/mL	0.2 µg/mL (≈ 0.236 µM)		100 µg/mL (≈ 118 µM)	100 µg/mL (≈ 118 µM)	0.39 µg/mL (≈ 0.459 µM)	0.2 µg/mL (≈ 0.236 µM)	0.1 µg/mL (≈ 0.118 µM)	0.2 µg/mL (≈ 0.236 µM)	0.2 µg/mL (≈ 0.236 µM)	0.2 µg/mL (≈ 0.236 µM)	MIC [2, 37]: 0.1 µg/mL (≈ 0.118 µM); MIC ([9]; read-out: MIC): 0.78 µg/mL (≈ 0.919 µM); MIC ([10]; read-out: MIC): 0.39 µg/mL (≈ 0.459 µM); MIC ([12]; read-out: MIC): 1.56 µg/mL (≈ 1.84 µM); MIC ([17]; read-out: MIC): 0.2 µg/mL (≈ 0.236 µM); MIC ([21]; read-out: MIC): > 100 µg/mL; MIC ([22]; read-out: MIC): 0.39 µg/mL (≈ 0.459 µM); MIC ([23]; Streptococcus agalactiae, CMX508, 24 h, BHI agar): 0.05 µg/mL (≈ 0.0589 µM)
